# Experimental data published in US11510899B2, “RTX toxin production inhibitor and composition for treating symptom of vibrio infection by using same” (priority 2018, dated 2022).
# Experiments:
# [1] = test system: Vibrio vulnificus; assay: Hemolytic activity of Vibrio vulnificus against erythrocytes; type: cell-based; conditions: culture supernatant at A600=1.0, different concentrations
# Experimental: Meanwhile, the effect of CM2660 on the hemolytic activity against erythrocytes of Vibrio vulnificus was investigated. For this purpose, Vibrio vulnificus was cultured at 30° C. and treated with CM2660 at different concentrations at A600=0.2. […] The filtered supernatant was concentrated and mixed with erythrocytes diluted to 10% in PBS and cultured at 37° C. Hemolytic activity against erythrocytes was quantified by measuring absorbance at 540 nm (A540). A sample completely dissolved by treatment with 5% Triton X-100 instead of the supernatant was used as a positive control group and a sample using LBS medium was used as a negative control group.
# Hemolytic activity was calculated using the following Equation 2, and is shown as a percentage (%) in FIG. 14.
# [2] = test system: Vibrio vulnificus; assay: Cytotoxicity of Vibrio vulnificus to INT-407 cells (LDH activity); type: cell-based; conditions: MOI 10, 2.5 hours, various concentrations
# Experimental: Vibrio vulnificus cultured to A600=0.5 at 30° C. was treated with various concentrations of CM2660 or DMSO (control group) and infected into INT-407 cells prepared in 96-well assay plates at multiplicity of infection (MOI) of 10 for 2.5 hours. Then, the 96-well assay plates were centrifuged to separate INT-407 cells, and the supernatant and the lactate dehydrogenase (LDH) activity in the supernatant was measured to determine the occurrence of virulence (FIG. 13).
# [3] = test system: exsA, vp1668, vopQ, vopS and vopR; assay: qRT-PCR of exsA and T3SS-1 genes in Vibrio parahaemolyticus; type: cell-based; conditions: 20 μM, DMEM, vs 2% DMSO
# Source text: In V. parahaemolyticus, HlyU is known to activate the gene expression of the master transcriptional regulator, exsA of type III secretion system-1 (T3SS-1), which causes cytotoxicity. In order to determine whether or not CM2660 reduces the expression of the exsA gene by inhibiting HlyU of V. parahaemolyticus, virulence gene expression of V. parahaemolyticus was investigated using the same method as in (2) of Experimental Example 1.
# In order to induce the T3SS-1 gene expression of Vibrio parahaemolyticus, Vibrio parahaemolyticus was cultured in Dulbecco's Modified Eagle Medium (DMEM) medium.
# Meanwhile, since ExsA activates the expression of the T3SS-1 gene of Vibrio parahaemolyticus, T3SS-1 gene expression was detected using the same sample to determine whether or not the expression of exsA leads to a decrease in T3SS-1 gene expression (FIG. 24).
# [4] = molecular target: T1, HlyU (Vibrio vulnificus, UniProt A0A3Q0L222); assay: Vibrio reporter strain, pKK1305 (PrtxA-lux, activated by HlyU) in wild-type V. vulnificus; type: cell-based; conditions: Compound Group I; HlyU activity (RLU, DMSO = 100%), 30° C.
# T1 sequence (A0A3Q0L222 1-98): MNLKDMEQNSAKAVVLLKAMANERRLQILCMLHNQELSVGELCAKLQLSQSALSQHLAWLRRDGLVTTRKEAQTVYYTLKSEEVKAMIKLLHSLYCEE
# Experimental: Meanwhile, verification experiments using the Vibrio reporter strain were also conducted so as to exclude false positive results. It was identified that the effect of the compound was not limited only to E. coli using Vibrio vulnificus, each having the reporter plasmid (pZW1608) inhibited by HlyU, which was used for the E. coli reporter strain, and the plasmid (pKK1305) in which the promoter of the rtxA gene activated by HlyU is cloned in front of the bioluminescence operon.
# The constructed wild-type Vibrio reporter strain was treated with sample compounds and cultured at 30° C., and cell growth and luminescence were measured in the same manner as the E. coli strain screening (FIG. 3 and FIG. 4).
# In order to identify whether or not a specific structure of CM2660 has a significant effect on HlyU inhibition, the effect of HlyU inhibition by the compound CM2660 and derivatives thereof, “Compound Group I” (FIG. 5) was verified. For the purpose, the pKK1305 plasmid prepared in Example 1 was conjugated to the wild-type Vibrio vulnificus, and the Vibrio reporter strain (pKK1305 in wild-type V. vulnificus) thus produced was treated with various concentrations of the derivative compounds.
# While culturing at 30° C., the growth of the reporter strain and the degree of bioluminescence thereof were measured in the same manner as in Example 1, and the RLU was calculated. The RLU of the DMSO-treated control group was expressed as 100% HlyU activity. HlyU activity was plotted according to the concentration of the derivative compound, and EC50 (half maximal effective concentration) was calculated using GraphPad Prism 7.0 (GraphPad Software, San Diego, Calif.) (FIG. 6, Table 2).
# [5] = test system: Vibrio cholerae; assay: Hemolytic activity of Vibrio cholerae supernatant on horse blood agar; conditions: 20 μM, 37° C., 24 hours
# Experimental: Vibrio cholerae supernatant when treated with DMSO was dotted in horse blood agar medium and cultured at 37° C. for 24 hours.
# [6] = test system: hlyA and tlh; assay: qRT-PCR of hemolytic protein genes in Vibrio cholerae; conditions: 20 μM, A600=0.5, vs 2% DMSO
# [7] = test system: INT-407 cells; assay: In-vitro cytotoxicity, LDH release assay; type: cell-based, human; conditions: 1 to 500 μM, 3 hours, 5% Triton-X 100 = 100%
# Experimental: In order to investigate the in-vitro cytotoxicity of CM2660, human epithelial cells, INT-407 cells were treated with Vibrio vulnificus (control) of MOI 10, and 1 to 500 μM of CM2660 or DMSO. After 3 hours, LDH release assay was performed and cytotoxicity was measured (FIG. 21). […] Cytotoxicity (%) was calculated with respect to the cytotoxicity obtained through treatment of 5% Triton-X 100 as 100%.
# [8] = test system: Vibrio parahaemolyticus; assay: Cytotoxicity of Vibrio parahaemolyticus; type: cell-based; conditions: CM2660 at different concentrations
# [9] = test system: exsA, va11668, vopQ, vopS and vopR; assay: qRT-PCR of exsA and T3SS genes in Vibrio alginolyticus; type: cell-based; conditions: 20 μM, A600=0.5, vs 2% DMSO
# Experimental: Vibrio alginolyticus is also a pathogenic Vibrio bacterium that has T3SS and is cytotoxic, similar to Vibrio parahaemolyticus. In order to determine the toxin inhibition effect of CM2660 in Vibrio alginolyticus, Vibrio alginolyticus was cultured in TSB (tryptic soy broth) medium supplemented with 1% NaCl.
# [10] = molecular target: T1, HlyU; assay: Mass spectrometry / X-ray crystallography of HlyU protein treated with CM2660; type: binding
# Experimental: In order to more accurately identify the HlyU inhibition mechanism of CM2660, the crystal structure of CM2660-treated HlyU protein was detected by X-ray crystallography and compared with that of the HlyU protein not treated with CM2660 (FIG. 17, FIG. 18).
# In order to identify this in more detail, samples of HlyU protein treated with CM2660 were analyzed using mass spectrometry.
smiles,measurement,setting,value
"O=C(C#Cc1ccccc1)Nc1scc2c1c(=O)oc1ccccc12 [CM2660, N-(4-oxo-4H-thieno[3,4-c]chromen-3-yl)-3-phenylprop-2-ynamide]",hemolytic activity against erythrocytes,[1],concentration-dependent decrease
same,virulence (cytotoxicity) occurrence of Vibrio vulnificus,[2],concentration-dependent decrease
same,exsA mRNA level,[3],significantly decreased
same,vopQ mRNA level,[3],decreased significantly
same,vopR mRNA level,[3],decreased significantly
same,vopS mRNA level,[3],decreased significantly
same,vp1668 mRNA level,[3],decreased significantly
same,EC50,[4],30.9 µM
same,hemolytic activity of Vibrio cholerae (clear zone),[5],reduced
same,hlyA mRNA level,[6],significantly reduced
same,tlh mRNA level,[6],significantly reduced
same,cytotoxicity to INT-407 cells,[7],almost no cytotoxicity
same,cytotoxicity of Vibrio parahaemolyticus,[8],decrease in the cytotoxicity
same,exsA mRNA level,[9],significantly reduced
same,va11668 mRNA level,[9],significantly reduced
same,vopQ mRNA level,[9],significantly reduced
same,vopR mRNA level,[9],significantly reduced
same,vopS mRNA level,[9],significantly reduced
same,covalent binding to cysteine residue at position 30 of HlyU,[10],covalently bound
